Experimental findings from patent US10342796B2, “Acrylanilide derivative, preparation method, and applications thereof in pharmacy” (Ancureall Pharmaceutical (Shanghai) Co., Ltd., priority 2015, dated 2019) are described below.

Common to all, as to assay: Growth inhibition GI50 in vitro (CCK8/MTT, 72 h)
Test [1] has as its system A549 (EGFR WT). The test is classed as cell-based, human. As to conditions: Homo sapiens, A549.
In test [2] the test system is H292 (EGFR WT). The test is classed as cell-based. As to conditions: Homo sapiens, NCI-H292; Table 15; 1000 nM to 0.03 nM serial dilution; read-out: GI50 H292 (EGFR WT). The source says: EGFR wild type cell lines: human epidermal cancer cell line A431 (EGFR WT, amplification and high expression, from Shanghai Cell Bank of Chinese Academy of Sciences and ATCC), NSCLC cell lines NCI-H460 (EGFR WT, Kras G61H and PI3KCA E545K mutants, ATCC) and NCI-H1299 (EGFR WT, ATCC), melanoma cell line A375 (EGFR WT and BRAF V600E mutant, from Shanghai Cell Bank of Chinese Academy of Sciences, ATCC), human lung cancer cell line NCI-H292 (EGFR WT, from human lung mucoepidermoid carcinoma/lymphatic metastasis, purchased from Shanghai Cell Bank of Chinese Academy of Sciences) were cultured with 1×RPMI1640 complete medium which was supplement with 10% FBS. NSCLC cell line A549 (EGFR WT and Kras G12S mutant, from Shanghai Cell Bank of Chinese Academy of Sciences) was cultured with 1×Ham'S F12K complete medium which was supplement with 10% FBS, 1% double-antibiotics and 2 mM glutamine.
(§1) The suspension cells were collected by centrifugation. The supernatant was discard and the cell pellet was resuspended and counted. Different cell concentrations (5˜10×10^4 cells/mL) were prepared according to the growth cycle of each cell line and then seeded on a 96-well plate (Corning), 100 μL/well. The cells were incubated over night at 37° C., 5% CO2. The compounds were added to the cells on the second day with 2 wells in parallel. The final concentration of organic solvent shall not exceed 1%. The cells were continually incubated for 72 h, and then subjected to MTT assay.
(§2) The present compounds and the reference compounds were dissolved with DMSO (Sigma), respectively. […] The storage concentration of compounds was 10 mM and kept at −20° C. They were diluted by 2 times or 10 times with serial dilution before using.
(§3) Dojindo CCK8 reagent kit was used as MTT assay. […] FC meter was used as microplate reader.
Adherent cell culture medium was discard and immediately replaced with fresh prepared medium which contains 10% CCK8 reagent (100 μL/well). For the suspension cells, CCK8 was directly added to 10% of the final concentration. The cells were continually incubated for 1˜4 h. When the color of control wells turned to dark yellow, the absorption value was measured at OD450 nm. The cell growth rate was calculated according to the following formula: cell growth rate (%)=100*(T−T0)/(C−T0), T=optical density of drug treatment cell well—optical density of blank control well; T0=optical density of cell well before drug treatment—optical density of blank control well; C=optical density of cell well of solvent control group—optical density of blank control well. […] The experiment was independently repeated 1˜3 times, and subject to biological statistical analysis.

In test [3] the test system is N87 (HER2 Amp). The test is classed as cell-based, human. As to conditions: Homo sapiens.
In test [4] the test system is NCI-H1781 (HER2 exon 20 G776VC mutation). Format: cell-based. As to conditions: Homo sapiens, NCI-H1781; Table 16; 1000 nM to 0.03 nM serial dilution; read-out: GI50 H1781 (HER2 G776VC). The protocol: Human lung adenocarcinoma cell line Calu-3 (ATCC) was cultured with 1×MEM complete medium (10% FBS, 1% double-antibiotics, 1% NEAA (Gibco), 2 mM glutamine and 1 mM of sodium pyruvate). Human breast cancer cell line SK-BR-3 was cultured with McCOY'S5A complete medium (10% FBS). Human colon cancer cell line SNU1040 (HER2 V777M positive) (ATCC) and human bronchoalveolar adenocarcinoma cell line NCI-H1781 (expressing HER2 exon 20 G776VC mutation) (ATCC) were cultured with 1×RPMI1640 complete medium (10% FBS), respectively.
as §1, with “Adherent cells were digested with 0.25% pancreatin-EDTA (Gibco). The suspension” for “The suspension”
as §2, §3
Adherent cell culture medium was discard and immediately replaced with fresh prepared medium which contains 10% CCK8 reagent (100 μL/well). For the suspension cells, CCK8 was directly added to 10% of the final concentration. The cells were continually incubated for 1˜4 h. When the color of control wells turned to dark yellow, the absorption value was measured at OD450 nm. The cell growth rate was calculated according to the following formula: cell growth rate (%)=100*(T−T0)/(C−T0), T=optical density of drug treatment cell well—optical density of blank control well; T0=optical density of cell well before drug treatment—optical density of blank control well; C=optical density of cell well of solvent control group—optical density of blank control well. The concentration value of 50% inhibition of cell growth (GI50) was calculated. The experiment was independently repeated 1˜3 times, and subject to biological statistical analysis.
Furthermore, the present compounds (99, 136, 205, 211, 212, 213, 216, 229, 230, 231, 232, 233 and 236) were selected to carry out growth inhibition test for HER2/ERBB2 gene amplified or high expressed or mutant tumor cells. Afatinib and AZD9291 were used for references as second- and third-generation inhibitors of EGFR.
Each compound started at 1000 nM as an initial concentration and was diluted by 2 times with serial dilution to 0.03 nM. The GI50 value of each compound was calculated according to Test Example 1.3.

Test [5] relates to H1975 (EGFR L858R/T790M). Format: cell-based, human. As to conditions: Homo sapiens, NCI-H1975.
Test [6] relates to PC-9 (EGFR dE746-A750). The test is classed as cell-based, human. As to conditions: Homo sapiens.
Where [7] appears, read: Table 13, 72 h, read-out: Range of GI50 A549 (EGFR WT).
The mark [8] stands for this setting: Table 15, 1000 nM to 0.03 nM serial dilution, read-out: GI50 A549 (EGFR WT).
[9] abbreviates: Table 13, 72 h, read-out: Range of GI50 N87 (HER2 Amp).
Setting [10] is: Table 16, 1000 nM to 0.03 nM serial dilution, read-out: GI50 N87 (HER2 amp).
Setting [11] is: Table 13, 72 h, read-out: Range of GI50 H1975 (EGFR L858R/T790M).
The mark [12] stands for this setting: Table 15, 1000 nM to 0.03 nM serial dilution, read-out: GI50 H1975 (EGFR L858R/T790M).
[13] abbreviates: Table 13, 72 h, read-out: Range of GI50 PC-9 (EGFR dE746-A750).
[14] abbreviates: Table 15, 1000 nM to 0.03 nM serial dilution, read-out: GI50 PC-9 (EGFR dE746-A750).

Like-named read-outs stand apart in the source and are kept apart here.

As to `C=CC(=O)Nc1cc(Nc2nccc(-n3ccc4c(OC)cc(Br)cc43)n2)c(OC)cc1N(C)CCN(C)C` [Compound 211, N-(5-(4-(4-methoxyl-6-bromo-1H-indol-1-yl)-pyrimidin-2-ylamino)-2-(2-(dimethylamino-ethyl)-methyl-amino)-4-methoxyl-phenyl)-acrylamide], the GI50 was greater than 1000 nM in test [1] (setting [7]); greater than 1000 nM in test [1] (setting [8]); greater than 1000 nM in test [2]; less than 10 nM in test [3] (setting [9]); 6.76 nM in test [3] (setting [10]); 31.5 nM in test [4]. The GI50 in test [5] (setting [11]) was 10 to 100 nM; in test [5] (setting [12]), 19.6 nM; in test [6] (setting [13]), less than 10 nM; in test [6] (setting [14]) it was 7.89 nM.

Regarding `C=CC(=O)Nc1cc(Nc2nccc(-n3ccc4c(OC)cc(F)cc43)n2)c(OC)cc1N(C)CCN(C)C` [Compound 212, N-(5-(4-(4-methoxyl-6-fluoro-1H-indol-1-yl)-pyrimidin-2-ylamino)-2-(2-(dimethylamino-ethyl)-methyl-amino)-4-methoxyl-phenyl)-acrylamide], the GI50 in test [1] (setting [7]) is greater than 1000 nM; in test [1] (setting [8]), greater than 1000 nM; in test [2], greater than 1000 nM; in test [3] (setting [9]) it was less than 10 nM; in test [3] (setting [10]) it was 2.67 nM; in test [4] it was 15.6 nM. The GI50 was less than 10 nM in test [5] (setting [11]), 8.56 nM in test [5] (setting [12]), less than 10 nM in test [6] (setting [13]) and 6.82 nM in test [6] (setting [14]).

For the compound `C=CC(=O)Nc1cc(Nc2nccc(-n3ccc4c(OC)cc(Cl)cc43)n2)c(OC)cc1N(C)CCN(C)C` [Compound 213], the GI50 is greater than 1000 nM in test [1] (setting [7]); greater than 1000 nM in test [1] (setting [8]); greater than 1000 nM in test [2]; less than 10 nM in test [3] (setting [9]); 1.95 nM in test [3] (setting [10]); 15.6 nM in test [4]. In addition, the GI50 is less than 10 nM in test [5] (setting [11]), 9.8 nM in test [5] (setting [12]), less than 10 nM in test [6] (setting [13]) and 7.83 nM in test [6] (setting [14]).
